Test results reported in BindingDB's records for doi:10.1016/j.bmc.2006.01.067 (Johnson & Johnson Pharmaceutical, 2006).

Molecular target: T1, Integrin alpha-4/beta-7 (Homo sapiens, UniProt P13612+P26010)
T1 sequence (P13612 whole entry): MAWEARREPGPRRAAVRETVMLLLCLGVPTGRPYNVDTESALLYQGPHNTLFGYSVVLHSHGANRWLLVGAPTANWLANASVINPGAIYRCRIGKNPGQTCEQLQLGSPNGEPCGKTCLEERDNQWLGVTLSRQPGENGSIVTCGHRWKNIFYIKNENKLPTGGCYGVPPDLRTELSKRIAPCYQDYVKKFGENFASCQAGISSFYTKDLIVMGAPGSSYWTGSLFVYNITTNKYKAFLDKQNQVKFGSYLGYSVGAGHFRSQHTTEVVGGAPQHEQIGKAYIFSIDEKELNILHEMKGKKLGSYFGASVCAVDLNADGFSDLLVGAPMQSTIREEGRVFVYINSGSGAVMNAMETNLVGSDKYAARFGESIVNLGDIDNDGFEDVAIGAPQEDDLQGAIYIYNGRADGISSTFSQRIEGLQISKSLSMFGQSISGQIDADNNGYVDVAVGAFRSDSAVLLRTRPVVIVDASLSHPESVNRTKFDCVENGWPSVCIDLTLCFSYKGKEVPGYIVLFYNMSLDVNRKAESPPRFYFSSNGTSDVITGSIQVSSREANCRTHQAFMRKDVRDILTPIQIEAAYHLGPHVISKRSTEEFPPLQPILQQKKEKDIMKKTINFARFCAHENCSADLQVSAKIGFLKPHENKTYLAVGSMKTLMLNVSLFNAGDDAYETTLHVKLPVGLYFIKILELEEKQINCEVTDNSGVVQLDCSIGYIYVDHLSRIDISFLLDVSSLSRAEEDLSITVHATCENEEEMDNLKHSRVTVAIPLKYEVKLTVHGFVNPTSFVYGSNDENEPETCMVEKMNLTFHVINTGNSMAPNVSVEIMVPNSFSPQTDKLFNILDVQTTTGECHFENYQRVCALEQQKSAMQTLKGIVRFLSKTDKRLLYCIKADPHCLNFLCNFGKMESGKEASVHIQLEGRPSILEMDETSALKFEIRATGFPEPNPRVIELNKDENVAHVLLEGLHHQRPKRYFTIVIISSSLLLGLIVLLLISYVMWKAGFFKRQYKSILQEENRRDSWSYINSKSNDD
T1 sequence (P26010 whole entry): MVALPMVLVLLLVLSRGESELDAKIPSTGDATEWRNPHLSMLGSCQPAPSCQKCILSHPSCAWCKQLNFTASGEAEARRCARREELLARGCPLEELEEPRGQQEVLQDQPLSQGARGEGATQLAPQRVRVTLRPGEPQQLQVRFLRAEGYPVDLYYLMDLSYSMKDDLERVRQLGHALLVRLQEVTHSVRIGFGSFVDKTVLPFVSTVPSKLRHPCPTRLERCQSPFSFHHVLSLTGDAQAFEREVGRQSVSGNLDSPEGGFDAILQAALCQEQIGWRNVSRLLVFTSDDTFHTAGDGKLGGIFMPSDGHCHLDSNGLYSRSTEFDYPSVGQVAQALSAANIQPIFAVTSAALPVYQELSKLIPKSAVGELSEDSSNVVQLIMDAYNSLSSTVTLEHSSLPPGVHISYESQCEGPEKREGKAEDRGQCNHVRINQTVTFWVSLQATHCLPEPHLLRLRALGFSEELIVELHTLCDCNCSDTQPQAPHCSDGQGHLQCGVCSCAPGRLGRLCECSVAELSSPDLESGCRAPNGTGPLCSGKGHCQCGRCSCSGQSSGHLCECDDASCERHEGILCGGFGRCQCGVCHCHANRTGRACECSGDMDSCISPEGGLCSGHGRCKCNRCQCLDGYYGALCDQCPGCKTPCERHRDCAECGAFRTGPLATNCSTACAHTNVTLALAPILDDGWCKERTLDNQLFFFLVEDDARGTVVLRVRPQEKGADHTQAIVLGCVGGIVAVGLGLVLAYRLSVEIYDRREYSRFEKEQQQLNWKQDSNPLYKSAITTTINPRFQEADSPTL
Experiment: K562 Cell Adhesion Assay (alpha4beta7 Mediated Adhesion/MAdCAM-1)
Conditions: pH 7.4; 23 °C
Protocol: M2 anti-FLAG antibody coated 96-well plates were coated with recombinant FLAG-hMAdCAM-1 contained in Dulbecco PBS. The compounds to be tested were added. Stably transfected K562 cells expressing human alpha4beta7 integrin that had been labeled with […] fluorescein diacetate succinimidyl ester (CFDA-SE) were added to each well and allowed to adhere for 1 h at room temperature. Plates were washed, and then cells were lysed. The plate was read on a 96-well fluorescent plate reader at 485 nm excitation and 530 nm emission.

Compound	IC50
O=C(O)[C@H](Cc1ccc(N2C(=O)c3ccccc3C2=O)cc1)NC(=O)[C@@H]1C2CCC(CC2)N1S(=O)(=O)c1ccccc1	110 nM
O=C(Nc1ccc(C[C@H](NC(=O)[C@@H]2C3CCC(CC3)N2S(=O)(=O)c2ccccc2)C(=O)O)cc1)c1ccncc1 [(2S)-2-{[(3S)-2-(benzenesulfonyl)-2-azabicyclo[2.2.2]octan-3-yl]formamido}-3-[4-(pyridine-4-amido)phenyl]propanoic acid]	120 nM
O=C(Nc1ccc(C[C@H](NC(=O)[C@@H]2C3CCC(CC3)N2S(=O)(=O)c2ccccc2)C(=O)O)cc1)c1cc(Cl)nc(Cl)c1 [(2S)-2-{[(3S)-2-(benzenesulfonyl)-2-azabicyclo[2.2.2]octan-3-yl]formamido}-3-{4-[(2,6-dichloropyridine-4-)amido]phenyl}propanoic acid]	46 nM
